# Source: patent US11771692B2, “N-hydroxyethyl didehydroazapodophyllotoxins as GBP1 inhibitors and methods of overcoming treatment resistance in cancer” (The Board of Trustees of the Leland Stanford Junior …, priority 2018, dated 2023)
# “Also recorded” adds a separate entry of the source.
# Tests used:
# Type in all cases: cell-based
# [1] = tested on: Luciferase-tagged OVCAR8 cells; assay: Viability of luciferase-tagged OVCAR8 cells in combination with radiation or paclitaxel
# Description: FIG. 5, panels A-E: illustrates the sensitizing effect of SU093 on the viability of luciferase-tagged OVCAR8 cells in combination with radiation and chemotherapy treatment. FIG. 5, panel A graphs cells that were pre-treated with 0, 0.5 and 1 nM SU093 for 24 h followed by 0, 5 & 10 Gy radiation treatment and incubated for 96 h. FIG. 5, panel B illustrates cell cycle analysis of SU093 and radiation combination treatment in OVCAR8. FIG. 5, panel C illustrates the effect of SU093 on OVCAR8 cells in hypoxic condition (0.5% O2) FIG. 5, panel D graphs hypoxic cells that were pre-treated with SU093 for 24 h followed by 5 and 10 Gy radiation.
# It has been previously established that GBP1 expression has a definitive role in the resistance towards radiation therapy and taxane-based chemotherapy. The GBP1 inhibitor SU093 was tested in combination with radiation and paclitaxel (a well known taxane-based chemotherapeutic drug) for its potential in overcoming radiation therapy and taxane resistance. […] A cell cycle analysis experiment for radiation was performed with SU093 and combination treatment (FIG. 5, panel B). […] One of the mechanisms through which a drug can sensitize the effect of radiation is its ability to block G2/M phase of the cell cycle (Leonard, C. E.; Chan, D. C.; Chou, T. C.; Kumar, R.; Bunn, P. A., Paclitaxel enhances in vitro radiosensitivity of squamous carcinoma cell lines of the head and neck. Cancer Research 1996, 56 (22), 5198-5204). G2/M is the most radiosensitive phase in the cell cycle and arresting the cell population in this phase would likely sensitize them to the next cycle of radiation and enhance cell death (Pawlik, T. M.; Keyomarsi, K., Role of cell cycle in mediating sensitivity to radiotherapy. International Journal of Radiation Oncology Biology Physics 2004, 59 (4), 928-942; Nambiar, D. K.; Rajamani, P.; Deep, G.; Jain, A. K.; Agarwal, R.; Singh, R. P., Silibinin Preferentially Radiosensitizes Prostate Cancer by Inhibiting DNA Repair Signaling. Molecular Cancer Therapeutics 2015, 14 (12), 2722-2734). […] Bearing in mind that solid tumors create a hypoxic microenvironment, these findings provided a very compelling case for the clinical application of the subject GBP1 inhibitors as a treatment for re-sensitizing radiation therapy in refractory cancers.
# The cytotoxic effect of SU093 and paclitaxel combination treatment was also studied (FIG. 5, panel E).
# [2] = tested on: SCC-90 cells; assay: MTT cell viability in SCC-90 cells with GBP1 overexpression and knockdown; settings: SCC-90, SU093 0.5-1000 nM, 48 h
# From the text: The potential for GBP1 inhibition and radiosensitzation in head and neck cancer cells was also investigated.
# [3] = tested on: GBP1 and PIM1; assay: Immunoblotting of GBP1 and PIM1 expression in OVCAR8 cells
# [4] = tested on: B2M; assay: B2M expression in SCC-90 cells; settings: SCC-90 cells treated with SU093
# From the text: Down-regulation of Major Histocompatibility Complex class I molecules (MHC-I) expression is a widespread phenomenon used by tumor cells to escape antitumor T-cell-mediated immune responses. Reduction in B2-microglobulin (B2M, a molecule associated with MHC-I) helps cancer cells to hide them from immune system (Hicklin, D. J.; Marincola, F. M.; Ferrone, S., HLA class I antigen downregulation in human cancers: T-cell immunotherapy revives an old story. Molecular Medicine Today 1999, S (4), 178-186.) In experiments conducted herein, reduced expression B2M in GBP1-OV cells was observed (FIG. 1, panel F).
structure (smiles),measurement,setting,value
COc1ccc2c(c1)N(CCO)C1=C(C(=O)OC1)C2c1ccccc1 (stereo not shown) [SU093],"cell viability, pretreatment with SU093 then radiation",[1]; 5 and 10 Gy radiation,significant synergistic effect
same,cytotoxicity in hypoxic conditions,"[1]; OVCAR8, hypoxic (0.5% O2)",intrinsic cytotoxic effects
same,cytotoxic effect of SU093 and paclitaxel combination,"[1]; SU093 0.5 nM 24 h then paclitaxel 1, 5, 10 nM",synergistic cytotoxic effect; also recorded: enhanced cytotoxic effect as compared to paclitaxel alone
same,"cell death, co-treatment with radiotherapy in hypoxia","[1]; hypoxic OVCAR8, SU093 plus 5 and 10 Gy",significantly potentiated cell death
same,cytotoxic effect in GBP1 OV and KD cells,[2],GBP1 dependent cytotoxic effect
same,GBP1 and PIM1 expression,[3],inhibits GBP1 and PIM1 expressions in a dose-dependent manner
same,B2M expression,[4],induced expression of B2M
